Measurements published in patent US6448032B1, “Human melanocyte stimulating hormone receptor polypeptide and DNA” (priority 1992, dated 2002).
No end group written: not given here.

Tests used:
MSH receptor [1] = biological target: T1, MSH receptor (Homo sapiens, UniProt Q01726); assay: Inhibition of 125I-NDP-MSH binding to stable COS-7 cell line harbouring pRC/CMV-11D; settings: NDP-MSH radioligand competition
T1 construct: This polypeptide constitutes the entire polypeptide of an MSH receptor; expressed in transfected cells; host or cells: COS-7 cells, transient, plasmid pE-11D (pcDNAI)
T1 sequence (Q01726 whole entry): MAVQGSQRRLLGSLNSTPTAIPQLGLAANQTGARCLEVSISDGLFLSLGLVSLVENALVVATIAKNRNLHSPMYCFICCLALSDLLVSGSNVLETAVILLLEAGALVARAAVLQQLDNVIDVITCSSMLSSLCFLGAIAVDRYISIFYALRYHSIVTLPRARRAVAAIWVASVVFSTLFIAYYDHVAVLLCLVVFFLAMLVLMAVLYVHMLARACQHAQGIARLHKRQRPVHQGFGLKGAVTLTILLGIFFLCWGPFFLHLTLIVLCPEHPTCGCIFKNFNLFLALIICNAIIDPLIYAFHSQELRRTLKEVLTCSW
Method: COS-7 cells (available from ATCC) were grown in Dulbecco's modified Eagle medium with 8% fetal calf serum and non-essential amino acids (Gibco/BRL, 8400 Helgerman Court, Gaithersburg, Md. 20877, USA) in serum free medium, five hours after transfection, serum containing medium was replaced, and cells were cultivated for 48 hours. At this time selection for the calls stably harbouring the pRC/CMV-11D plasmid was begun by growing the cells in neomycin (0.5 mg/ml) containing medium (selection medium). Selection procedure was continued for two weeks, replacing the selection medium every 4th day. surviving cells were collected and maintained in the selection medium. These cells constitute the stable cell line.
To investigate the binding properties cells were scraped off from the culture flask, centrifuged, resuspended in selection medium, plated on 48 well, and allowed to grow for 24 hours. […] Radioactivity was counted and data analyzed by an iterative, non-linear curve fitting programme suitable for radioligand binding analysis. […]

MSH receptor [2] = biological target: T1, MSH receptor; assay: Inhibition of 125I-NDP-MSH binding to COS-7 cells transfected with MSH receptor cDNA (pE-11D); settings: pE-11D transfected COS-7 cells
Method: (§1) Eighty percent confluent cultures were transfected with 1 μg of pE-11D plasmid DNA and 40 μg lipofectin (BRL, 8400 Helgerman Court, Gaithersburg, Md. 20877, USA) in serum free medium. Five hours after transfection, serum containing medium was replaced, and cells were cultivated for 20 hours. Cells were then scraped off, centrifuged, resuspended in serum containing medium, plated on 48 well plates, and allowed to grow for 24 hours. […] Radioactivity was counted and data analyzed by iterative, non-linear curve fitting programme suitable for radioligand binding analysis (see FIG. 6).

MC-2 receptor = biological target: T2, MC-2 receptor (Homo sapiens, UniProt P33032); assay: Inhibition of 125I-NDP-MSH binding to COS-7 cells transfected with pE-MC-2; settings: pE-MC-2 transfected COS-7 cells
T2 construct: expressed in transfected cells; host or cells: COS-7 cells, transient, plasmid pE-MC-2 (pRC/CMV)
T2 sequence (P33032 whole entry): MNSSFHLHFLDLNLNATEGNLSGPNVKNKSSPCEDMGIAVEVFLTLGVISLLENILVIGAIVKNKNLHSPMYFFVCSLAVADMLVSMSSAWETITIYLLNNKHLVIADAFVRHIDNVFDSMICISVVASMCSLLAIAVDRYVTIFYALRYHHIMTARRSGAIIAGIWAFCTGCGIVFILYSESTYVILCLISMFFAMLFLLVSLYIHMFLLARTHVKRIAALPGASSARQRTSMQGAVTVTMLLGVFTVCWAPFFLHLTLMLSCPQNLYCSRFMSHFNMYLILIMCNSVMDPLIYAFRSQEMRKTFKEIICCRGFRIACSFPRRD
Method: as §1, with “pE-MC-2” for “pE-11D”, “9).” for “6).”

[3] = 37° C., 2 hours, Ki from IC-50 by Cheng and Prusoff equation, read-out: Ki for inhibiting 125I-NDP-MSH binding

Row | Compound | binding affinity for the expressed MSH receptor (MSH receptor [1]) | Ki (MSH receptor [2]; [3]) [nM] | Ki (MC-2 receptor; [3]) [nM] | affinity for the expressed MSH receptor (MSH receptor [2]; 125I-NDP-MSH competition) | affinity for the expressed MC-2 receptor (MC-2 receptor; 125I-NDP-MSH competition)
1 | CSCC[C@H](N)C(=O)N[C@@H](CCC(=O)O)C(=O)N[C@@H](Cc1c[nH]cn1)C(=O)N[C@@H](Cc1ccccc1)C(=O)N[C@@H](CCCNC(=N)N)C(=O)N[C@@H](Cc1c[nH]c2ccccc12)C(=O)NCC(=O)O [ACTH (4-10)] | very low binding affinity | – | – | – | –
2 | SYSMEHFRWGKPVGKKRRPVKVYPNGAEDESAEAFPLEF [ACTH (1-39)] | – | 0.17 ± 0.037 | 929 ± 389 | – | –
3 | β-endorphin: non-melanotropic POMC peptide | no affinity | – | – | no affinity | no affinity
